pIC50: −log10 of the molar value. Several values for one entry are separate records, joined by “and”; a condition that tells them apart may be missing. Identical values can stand only once.
Test system: 883617-216-R-J1-PDC complex spheroid viability
Assay: Anticancer human tumor 883617-216-R-J1-PDC patient-derived bladder carcinoma cell line growth inhibition [POLQ]
Details: for viability, T/C: stronger effect = lower value; for pIC50: curve of compound
Method: Multicellular complex tumor spheroid response to Polymerase (POL) inhibitors (novobiocin, ART-558, RP6685) in combination with a variety of drugs and investigational agents in selected tumor cell lines
The POL inhibitors (novobiocin, ART-558, and RP6685) were evaluated both individually and in combination with standard of care and investigational anticancer small molecules within a complex spheroid model of solid tumors. . Complex spheroids include a stromal component modeled by human endothelial cells (HUVEC) and fibroblasts modeled by human mesenchymal stem cells (MSCs). The concentration ranges selected for each drug and investigational agent were based upon clinically achievable concentrations if the clinical Cmax of the agent was known.
Compounds. The drugs and investigational agents: novobiocin (NSC847541), ART-558 (NSC835418), RP-6685 (NSC848927), peposertib (NSC802822), ceralasertib (NSC780249), elimusertib (NSC800525), camonsertib (NSC841442), AZD-1390 (NSC803789), olaparib (NSC753686), talazoparib (NSC767125), rucaparib (NSC756644), sotorasib (NSC818433), MRTX-1133 (NSC836407), SN-38 (NSC673596), topotecan (NSC609699), epotoside (NSC141540), doxorubicin (NSC123127), gemcitabine (NSC613327), 5-fluorouracil (NSC19893), paclitaxel (NSC125973), vemurafenib (NSC761431), MSA-2 (NSC828583), SN-011 (NSC837082), adavosertib (NSC754352), prexasertib (NSC758257), carboplatin (NSC241240) and oxaliplatin (NSC266046), were obtained from the National Cancer Institute (NCI) Developmental Therapeutics Program Chemical Repository (21). The FDA-approved anticancer drug set is available from the Developmental Therapeutics Program at https://dtp.cancer.gov/organization/dscb/obtaining/. […] The stock solutions were prepared in dimethyl sulfoxide (DMSO, Sigma-Aldrich, St. Louis, MO, cat. D2650), except for the platinum compounds which were prepared in saline (Quality Biological, Gaithersburg, MD, cat. 114-055-101), at 800-fold the tested concentration and stored at -70 degrees C prior to their use. All drugs and investigational agents were tested over a range starting from a high concentration at or near the clinical Cmax and decreasing in half-log increments. If the clinical Cmax for an agent had not been determined, the highest concentration tested was 10 microM, except for SN-38, which was tested at a high concentration of 1 microM.
Cell Culture. All cells were maintained in an incubator at 37 degrees C and 5% CO2 with 95% humidity. The PDC lines were cultured according to standard operating procedures established by the NCI PDMR (https://pdmr.cancer.gov). Table 3 of the manuscript, lists the cell lines along with the number of the three cell types plated to form the mct-spheroids and media for tumor cell growth. After thawing, all PDC lines, except 997537-175-T-J1-PDC and 415267-285-R-J2-PDC, were cultured in Matrigel-coated flasks prepared with a working solution of 1X Ham's F-12 nutrient mix, without supplementation (Thermo Fisher Scientific, cat. 11765054), 100 U/mL penicillin-streptomycin (Thermo Fisher Scientific, cat. 15140122), and 2.5% Matrigel (Corning Inc., Corning, NY, cat. 354248) for the first three passages. The two PDC lines 997537-175-T-J1-PDC and 415267-285-R-J2-PDC were cultured on uncoated flasks. The 857933-349-R-J2-PDC line was cultured in 6C/Colon 1B media containing advanced DMEM/F-12 (Thermo Fisher Scientific, cat. 12634028), 10 mM HEPES (Thermo Fisher Scientific, cat. 15630080), 1X GlutaMAX supplement (Thermo Fisher Scientific, cat. 35050061), 0.1 mg/mL primocin (InvivoGen, San Diego, CA, cat. ant-pm-2), 10% defined fetal bovine serum, heat inactivated (HyClone Laboratories Inc., Logan, UT, cat. SH30070.03HI), 50% L-WRN conditioned media (ATCC, cat. CRL-3276), 1.25 mM N-Acetyl-L-cysteine (Sigma-Aldrich, cat. A9165), 10 mM nicotinamide (Sigma-Aldrich, cat. N0636), 1X B-27 supplement (Thermo Fisher Scientific, cat. 17504044), 1X N-2 supplement (Thermo Fisher Scientific, cat. […]
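Further: spheroids exposed to compounds for seven days before readout.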
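Wherever viability, T/C is given: 100% = DMSO vehicle control viability.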

Row | Compound | viability, T/C (compound 0.0316 µM) | viability, T/C (compound 0.1 µM) | viability, T/C (compound 0.316 µM) | viability, T/C (compound 1 µM) | viability, T/C (compound 3.16 µM) | viability, T/C (compound 10 µM) | pIC50 | viability, T/C (compound 0.00316 µM) | viability, T/C (compound 0.01 µM) | viability, T/C (compound 0.00949 µM) | viability, T/C (compound 0.03 µM) | viability, T/C (compound 0.0949 µM) | viability, T/C (compound 0.3 µM) | viability, T/C (compound 0.949 µM) | viability, T/C (compound 3 µM) | viability, T/C (compound 0.000316 µM) | viability, T/C (compound 0.001 µM)
1 | C#Cc1c(F)ccc2cc(O)cc(-c3ncc4c(N5CC6CCC(C5)N6)nc(OCC56CCCN5CC(F)C6)nc4c3F)c12 (stereo unspecified) | 98% and 83% and 93.6% | 95% and 94% and 84.2% | 101% and 82% and 104% | 95.3% and 81.1% and 88.5% | 94.2% and 83% and 85.1% | 72.5% and 74.3% and 83.1% | < 5.00 |  |  |  |  |  |  |  |  |  | 
2 | C=CC(=O)N1CCN(c2nc(=O)n(-c3c(C)ccnc3C(C)C)c3nc(-c4c(O)cccc4F)c(F)cc23)C(C)C1 (stereo unspecified) | 74.3% and 68% and 64% | 64.8% and 60.8% and 63.8% | 75.8% and 70.3% and 81.9% | 72.6% and 83.2% and 78.3% | 91.3% and 76.7% and 85% | 81.6% and 83.3% and 76.6% | < 5.00 |  |  |  |  |  |  |  |  |  | 
3 | C=CCn1c(=O)c2cnc(Nc3ccc(N4CCN(C)CC4)cc3)nc2n1-c1cccc(C(C)(C)O)n1 | 100% and 108% and 112% | 107% and 87.8% and 93.7% | 85.4% and 72.3% and 92.5% | 48.6% and 50.2% and 50.6% |  |  | 6.02 and < 6.00 | 97.5% and 107% and 98.8% | 100% and 96.8% and 90.3% |  |  |  |  |  |  |  | 
4 | CC(=O)O[C@H]1C(=O)[C@@]2(C)[C@H]([C@H](OC(=O)c3ccccc3)[C@]3(O)C[C@H](OC(=O)[C@H](O)[C@@H](NC(=O)c4ccccc4)c4ccccc4)C(C)=C1C3(C)C)[C@]1(OC(C)=O)CO[C@@H]1C[C@@H]2O |  |  |  |  |  |  | > 8.02 and 7.86 |  |  | 44.9% and 57% and 43.1% | 32.5% and 35.8% and 26.7% | 22.9% and 26.7% and 15.8% | 30.6% and 21.1% and 24.6% | 28.4% and 23.5% and 25.1% | 26.5% and 19.3% (2×) |  | 
5 | CC(C)n1c(=O)n(C)c2cnc3cc(F)c(-c4ccc(OCCCN5CCCCC5)nc4)cc3c21 | 96% and 105% and 102% | 90.3% and 101% and 98.8% | 112% and 103% and 111% | 106% and 108% and 94.5% | 87.5% and 84% and 102% | 52.9% and 72% and 69.1% | < 5.00 |  |  |  |  |  |  |  |  |  | 
6 | CC1COCCN1c1cc(-c2ccnn2C)c2ccnc(-c3ccn[nH]3)c2n1 (stereo unspecified) | 83.5% and 90% and 77.5% | 51.3% and 58.9% and 59.6% | 43.9% and 45.8% and 56.5% | 36.8% and 37.4% and 36.7% | 32.3% and 29.7% and 40.9% | 27.4% and 31.1% and 28.9% | 6.82 and 6.68 and 6.41 |  |  |  |  |  |  |  |  |  | 
7 | CC1COCCN1c1cc(C2(O)CC3CCC(C2)O3)c2cnn(-c3ccn[nH]3)c2n1 (stereo unspecified) | 73.6% and 75.5% and 72.3% | 55.3% and 49.3% and 45.5% | 50.6% and 44.3% and 45.2% | 30.4% and 30% and 34.4% | 23.1% and 26.1% and 31% | 22.6% and 20.5% and 20.6% | 6.67 and 6.86 and 6.87 |  |  |  |  |  |  |  |  |  | 
8 | CC1COCCN1c1cc(C2(S(C)(=N)=O)CC2)nc(-c2ccnc3[nH]ccc23)n1 (stereo unspecified) | 98.9% and 101% and 87.7% | 89.9% and 94.3% and 103% | 98.4% and 83.1% and 84% | 71% (2×) and 73.5% | 54.2% and 53.8% and 48.3% | 30.1% and 34.3% and 34.5% | 5.46 and 5.39 and 5.55 |  |  |  |  |  |  |  |  |  | 
9 | CCCS(=O)(=O)Nc1ccc(F)c(C(=O)c2c[nH]c3ncc(-c4ccc(Cl)cc4)cc23)c1F | 107% and 115% and 95.1% | 95.8% (2×) and 89.8% | 102% and 90.4% and 116% | 105% and 107% and 95.2% | 79.3% and 101% and 95.3% | 49.6% and 44.3% and 34.8% | 5.01 and 5.05 and 5.12 |  |  |  |  |  |  |  |  |  | 
10 | CC[C@@]1(O)C(=O)OCc2c1cc1n(c2=O)Cc2cc3c(CN(C)C)c(O)ccc3nc2-1 | 65.8% and 77.7% and 65.3% | 53.6% and 63.2% and 48.6% |  |  |  |  | < 7.00 and 7.05 | 104% and 94.3% and 91.6% | 83.4% and 88.9% and 88.8% |  |  |  |  |  |  | 97.3% and 105% and 101% | 92.3% and 95.7% and 97%
11 | CCc1c2c(nc3ccc(O)cc13)-c1cc3c(c(=O)n1C2)COC(=O)[C@]3(O)CC | 59.9% and 65.7% and 60.6% | 48.4% and 64.6% and 47.4% | 33.3% and 41.8% and 31.2% | 18.5% and 31.8% and 23.8% |  |  | 7.02 and 6.66 and 7.20 | 60.2% and 77.9% and 72.8% | 56.4% and 60.8% and 57.2% |  |  |  |  |  |  |  | 
12 | CCc1cc2c(N3CCc4c(cc(Cn5ccnc5)cc4-c4cn(C)nc4C(F)(F)F)C3=O)cc(C)nc2c(OC)n1 | 106% and 92.1% and 103% | 91.4% and 85.8% and 99.9% | 116% and 83.7% and 101% | 91% and 107% and 80.5% | 75% and 69.3% and 71.5% | 54.1% and 46.2% and 47.7% | < 5.00 and 5.08 and 5.04 |  |  |  |  |  |  |  |  |  | 
13 | CCc1cc2c(N3CCc4c(cc(Cn5ccnc5)cc4-c4cn(C)nc4C(F)(F)F)C3=O)ccnc2c(OC)n1 | 105% and 80.5% and 91.8% | 94% and 89.7% and 94.5% | 102% and 76.2% and 108% | 107% and 92.5% and 85.3% | 80.3% and 74.5% and 92% | 51% and 47.2% and 50.3% | < 5.00 and 5.05 |  |  |  |  |  |  |  |  |  | 

Source: PubChem BioAssay AID1963833 (Molecular Pharmacology Branch, DTP, NCI, 2024)
